# Measurements as given in ChEMBL document CHEMBL5505960, “Synthesis and evaluation of butylphthalide-scutellarein hybrids as multifunctional agents for the treatment of Alzheimer's disease” (Eur J Med Chem, 2024).
# Activity calls are given as the source filed them. No cut-off for these calls is given here.
# Experiments:
# [1] = molecular target: Amyloid-beta precursor protein (Homo sapiens) (UniProt P05067); assay: Inhibition of amyloid beta (1 to 42) (unknown origin) self induced aggregation at 25 uM by ThT fluorescence assay relative to control
# Sequence of Amyloid-beta precursor protein (Homo sapiens) (P05067 whole entry): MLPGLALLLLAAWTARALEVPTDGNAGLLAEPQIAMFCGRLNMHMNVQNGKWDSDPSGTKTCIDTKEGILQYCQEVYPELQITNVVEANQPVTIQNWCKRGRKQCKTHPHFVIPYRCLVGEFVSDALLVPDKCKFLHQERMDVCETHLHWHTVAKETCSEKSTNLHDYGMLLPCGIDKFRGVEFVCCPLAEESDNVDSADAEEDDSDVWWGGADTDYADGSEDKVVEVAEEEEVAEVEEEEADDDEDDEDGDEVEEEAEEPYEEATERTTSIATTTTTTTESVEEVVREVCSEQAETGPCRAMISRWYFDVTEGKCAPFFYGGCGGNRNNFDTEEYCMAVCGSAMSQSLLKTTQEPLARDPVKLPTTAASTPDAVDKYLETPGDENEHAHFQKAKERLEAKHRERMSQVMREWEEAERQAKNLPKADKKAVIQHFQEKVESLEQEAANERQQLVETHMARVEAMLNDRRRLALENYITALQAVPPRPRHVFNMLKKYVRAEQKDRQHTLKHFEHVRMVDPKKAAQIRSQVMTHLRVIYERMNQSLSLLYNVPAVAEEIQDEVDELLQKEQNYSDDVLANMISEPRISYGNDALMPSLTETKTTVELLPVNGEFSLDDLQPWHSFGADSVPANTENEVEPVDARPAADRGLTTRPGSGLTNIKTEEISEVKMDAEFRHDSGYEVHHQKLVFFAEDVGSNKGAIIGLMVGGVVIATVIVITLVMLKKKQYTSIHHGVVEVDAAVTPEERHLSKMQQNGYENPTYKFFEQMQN
# [2] = Antioxidant activity assessed as trolox equivalent of ORAC radical scavenging activity by ORAC-FL assay relative to trolox; format: functional
# [3] = molecular target: Amyloid-beta precursor protein (Homo sapiens) (UniProt P05067); assay: Inhibition of Cu2+ induced amyloid beta (1 to 42)(unknown origin) fibrillation at 25 uM by ThT fluorescence assay relative to control
# [4] = molecular target: Amyloid-beta precursor protein (Homo sapiens) (UniProt P05067); assay: Disaggregation of self-induced amyloid beta (1 to 42) (unknown origin) fibrils at 25 uM by ThT fluorescence assay relative to control
# BV-2 [5] = assay: Antineuroinflammatory activity in LPS-induced mouse BV-2 cells assessed as inhibition of NO release at 2.5 uM preincubated for 30 mins followed by LPS stimulation and measured after 24 hrs relative to control; format: functional; parameters: scale not given: the % may be the effect or the level left; conditions: time 24.5 hrs
# BV-2 [6] = assay: Antineuroinflammatory activity in LPS-induced mouse BV-2 cells assessed as inhibition of IL-1 beta release at 2.5 uM preincubated for 30 mins followed by LPS stimulation and measured after 24 hrs relative to control; format: functional; parameters: scale not given: the % may be the effect or the level left; conditions: time 24.5 hrs
# HT-22 [7] = assay: Neuroprotective activity against amyloid beta (1 to 42)-induced injury in mouse HT-22 cells assessed as reversal of reduction in cell numbers at 10 uM measured after 24 hrs by MTT assay; format: functional, cell-based
# BV-2 [8] = assay: Antineuroinflammatory activity in LPS-induced mouse BV-2 cells assessed as inhibition of IL-1 beta release at 0.5 uM preincubated for 30 mins followed by LPS stimulation and measured after 24 hrs relative to control; format: functional; parameters: scale not given: the % may be the effect or the level left; conditions: time 24.5 hrs
# HT-22 [9] = assay: Neuroprotective activity against amyloid beta (1 to 42) induced cell injury in mouse HT-22 cells assessed as cell viability at 50 uM incubated for 24 hrs by MTT assay; format: functional, cell-based
# BV-2 [10] = assay: Antineuroinflammatory activity in LPS-induced mouse BV-2 cells assessed as inhibition of NO release at 10 uM preincubated for 30 mins followed by LPS stimulation and measured after 24 hrs relative to control; format: functional; parameters: scale not given: the % may be the effect or the level left; conditions: time 24.5 hrs
# HT-22 [11] = assay: Neuroprotective activity against amyloid beta (1 to 42)-induced injury in mouse HT-22 cells assessed as reversal of reduced cell synapse length at 10 uM measured after 24 hrs […]; format: functional, cell-based
# BV-2 [12] = assay: Antineuroinflammatory activity in LPS-induced mouse BV-2 cells assessed as inhibition of TNF-alpha release at 10 uM preincubated for 30 mins followed by LPS stimulation and measured after 24 hrs relative to control; format: functional; parameters: scale not given: the % may be the effect or the level left; conditions: time 24.5 hrs
# BV-2 [13] = assay: Antineuroinflammatory activity in LPS-induced mouse BV-2 cells assessed as inhibition of IL-1 beta release at 10 uM preincubated for 30 mins followed by LPS stimulation and measured after 24 hrs relative to control; format: functional; parameters: scale not given: the % may be the effect or the level left; conditions: time 24.5 hrs
# BV-2 [14] = assay: Antineuroinflammatory activity in LPS-induced mouse BV-2 cells assessed as inhibition of NO release at 0.5 uM preincubated for 30 mins followed by LPS stimulation and measured after 24 hrs relative to control; format: functional; parameters: scale not given: the % may be the effect or the level left; conditions: time 24.5 hrs
# BV-2 [15] = assay: Antineuroinflammatory activity in LPS-induced mouse BV-2 cells assessed as inhibition of TNF-alpha release at 2.5 uM preincubated for 30 mins followed by LPS stimulation and measured after 24 hrs relative to control; format: functional; parameters: scale not given: the % may be the effect or the level left; conditions: time 24.5 hrs
# BV-2 [16] = assay: Antineuroinflammatory activity in LPS-induced mouse BV-2 cells assessed as inhibition of TNF-alpha release at 0.5 uM preincubated for 30 mins followed by LPS stimulation and measured after 24 hrs relative to control; format: functional; parameters: scale not given: the % may be the effect or the level left; conditions: time 24.5 hrs
# BV-2 [17] = assay: Cytotoxicity against mouse BV-2 cells at upto 10 uM measured after 24 hrs by MTT assay; format: toxicity, cell-based; conditions: bv-2, 24 h
# BV-2 [18] = assay: Cytotoxicity against LPS-induced mouse BV-2 cells assessed as cell viability at 0.5 to 10 uM incubated for 24 hrs by MTT assay; format: toxicity, cell-based; conditions: bv-2, 24 h, dose 0.5-10 µM
Compound,inhibition [1],Activity [2],further results
C=CCCCC1OC(=O)c2c1cc(OC)c(OC)c2OC (stereo not drawn),19.2%,0.71,
C=CCCC1OC(=O)c2c1cc(OC)c(OC)c2OC (stereo not drawn),24.3%,0.53,
C=CCCCCCC1OC(=O)c2c1cc(OC)c(OC)c2OC (stereo not drawn),19.2%,0.46,
C=CC(C)(C)C1OC(=O)c2c1cc(OC)c(OC)c2O (stereo not drawn),37.1%,1.94,
C=CCCCCC1OC(=O)c2c1cc(OC)c(OC)c2OC (stereo not drawn),17.6%,0.61,
CCCCC1OC(=O)c2c1cc(OC)c(O)c2O (stereo not drawn),78.8%,2.36,inhibition [3]: 28.5%; Activity [4]: 39.5%
CCCC1OC(=O)c2c1cc(OC)c(OC)c2OC (stereo not drawn),21.8%,0.39,
CCCCC1OC(=O)c2c1cc(OC)c(OC)c2OC (stereo not drawn),15.9%,0.4,
C=CCC1OC(=O)c2c1cc(OC)c(OC)c2O (stereo not drawn),< 5%,1.71,
CCCCC1OC(=O)c2ccccc21 (racemic) [RAC-3-N-BUTYLPHTHALIDE],,0.23,Activity (BV-2 [5]): 23.2%; Activity (BV-2 [6]): 21.1%; Activity (HT-22 [7]): inactive; Activity (BV-2 [8]): 11.5%; Activity (HT-22 [9]): Active; Activity (BV-2 [10]): 45.5%; Activity (HT-22 [11]): inactive; Activity (BV-2 [12]): 40.6%; Activity (BV-2 [13]): 31.3%; Activity (BV-2 [14]): 13.3%; Activity (BV-2 [15]): 24%; Activity (BV-2 [16]): 12.6%; Activity (BV-2 [17]): Non-Toxic; Activity (BV-2 [18]): Non-Toxic
C=CC(C)(C)C1OC(=O)c2c1cc(OC)c(OC)c2OC (stereo not drawn),15%,0.45,
C=CCCC1OC(=O)c2c1cc(OC)c(OC)c2O (stereo not drawn),< 5%,1.93,
C=CCC1OC(=O)c2c1cc(OC)c(OC)c2OC (stereo not drawn),25.4%,0.41,

# The next lines start with results.
inhibition [1],Compound,Activity [2],further results
26.4%,CCCCCCCC1OC(=O)c2c1cc(OC)c(OC)c2O (stereo not drawn),1.34,
25.2%,CCCCCCC1OC(=O)c2c1cc(OC)c(OC)c2O (stereo not drawn),1.44,
25.2%,CCCCCCC1OC(=O)c2c1cc(OC)c(OC)c2OC (stereo not drawn),0.68,
16.5%,CCCCCCCC1OC(=O)c2c1cc(OC)c(OC)c2OC (stereo not drawn),0.62,
24.6%,C=CCCCC1OC(=O)c2c1cc(OC)c(OC)c2O (stereo not drawn),1.68,
83.3%,CCCCCCC1OC(=O)c2c1cc(OC)c(O)c2O (stereo not drawn),2.5,inhibition [3]: 30.5%; Activity [4]: 32.3%
19.2%,C=CCCCCC1OC(=O)c2c1cc(OC)c(OC)c2O (stereo not drawn),1.77,
30.2%,CCCCC1OC(=O)c2c1cc(OC)c(OC)c2O (stereo not drawn),1.27,
19.4%,CCCCCC1OC(=O)c2c1cc(OC)c(O)c2OC (stereo not drawn),2.08,
35.1%,CCCCCC1OC(=O)c2c1cc(OC)c(OC)c2O (stereo not drawn),1.36,
< 5%,C=CCCCCCC1OC(=O)c2c1cc(OC)c(OC)c2O (stereo not drawn),1.81,
29.1%,CCCCCCC1OC(=O)c2c1cc(OC)c(O)c2OC (stereo not drawn),1.6,
27.3%,CCCC1OC(=O)c2c1cc(OC)c(OC)c2O (stereo not drawn),1.21,
23.4%,CCCCC1OC(=O)c2c1cc(OC)c(O)c2OC (stereo not drawn),1.59,
19.4%,CCCCCC1OC(=O)c2c1cc(OC)c(OC)c2OC (stereo not drawn),0.47,
